The experiment relates to adrenergic receptors α1D, α2A, α2B; serotonin receptor 5-HT6; dopamine receptor D2L. The experiment is described as follows: Classification of compounds (Type 1-4) from receptor binding and neurite outgrowth. The text has this:
Compounds of the invention that inhibit binding of a ligand to adrenergic receptors α1D, α2A, α2B and serotonin receptor 5-HT6 by at least about 80% as determined in a suitable assay such as the assays described herein can be classified as Type 1 compounds. […] In one variation, binding of a ligand to serotonin receptor 5-HT7 is at least about 80%. […] Weak inhibition of binding of a ligand to the histamine H1 receptor is permitted as agonists of this receptor have been implicated in stimulating memory as well as weight gain. In one variation, binding to histamine receptor H1 is inhibited by less than about 80%. […] Compounds that inhibit binding of a ligand to the dopamine D2L receptor by at least about 80% as determined in a suitable assay such as the assay described herein can be classified as Type 2 compounds.
In one variation, Type 1 compounds further inhibit binding of a ligand to dopamine receptor D2L by less than about 80% as determined in a suitable assay known in the art such as the assay described herein. […] In one variation, binding of a ligand to serotonin receptor 5-HT7, 5-HT2A and/or 5-HT2C is inhibited by at least about 80% as determined in a suitable assay such as the assays described herein. […] In one variation, binding of a ligand to histamine receptor H1 and/or H2 is inhibited by less than about 80% as determined by a suitable assay known in the art such as the assays described herein.
In one variation, biding to serotonin receptor 5-HT2A is inhibited by at least about 80% as determined in a suitable assay know in the art such as the assay described herein.
Take `Cc1ccc(C(O)Cn2c3c(c4cc(C)ccc42)CN(C)CC3)cc1` (racemic) [Compound 28, racemic-2-(1,2,3,4-tetrahydro-2,8-dimethylpyrido[4,3-b]indol-5-yl)-1-p-tolylethanol]: the “compound type (classification by receptor binding profile and neurite outgrowth)” value (“compound type” for short) is “Type one”.

For the compound `Cc1ccc(CCn2c3c(c4cc(Cl)ccc42)CN(C)CC3)cc1` [Compound 43], the “compound type” value is on record as “Type one”.

As for `CN1CCc2c(c3cc(Cl)ccc3n2CCc2ccc(Cl)cc2)C1` [Compound 45, 5-(4-chlorophenethyl)-8-chloro-2,3,4,5-tetrahydro-2-methyl-1H-pyrido[4,3-b]indole], the “compound type” value was “Type one”.

As for `Cc1ccc(CCn2c3c(c4cc(C(F)(F)F)ccc42)CN(C)CC3)cc1` [Compound 47], the “compound type” value is listed as “Type one”.

Take `CN1CCc2c(c3cc(Cl)ccc3n2CCc2cccnc2)C1` [Compound 55]: the “compound type” value is “Type one”.

`CN1CCc2c(c3cc(Cl)ccc3n2CCc2ccncc2)C1` [Compound 56]: the “compound type” value is reported as “Type one”.

For `Cc1ccc2c(c1)c1c(n2CCc2cccnc2)CCN(C)C1` [Compound 60], the “compound type” value is “Type one”.

Take `CN1CCc2c(c3cccc(Cl)c3n2CCc2ccccc2)C1` [Compound 83]: the “compound type” value is on record as “Type one”.

In the case of `CN1CCc2c(c3cc(Cl)ccc3n2CCc2ccc(F)cc2)C1` [Compound 162, 5-(4-fluorophenethyl)-8-chloro-2,3,4,5-tetrahydro-2-methyl-1H-pyrido[4,3-b]indole], the “compound type” value was “Type one”.

On to `Cc1ccc(CCn2c3c(c4cc(Cl)ccc42)CN(C)CC3)cn1` [Compound 225, 8-chloro-2,3,4,5-tetrahydro-2-methyl-5-(2-(6-methylpyridin-3-yl)ethyl)-1H-pyrido[4,3-b]indole], for which the “compound type” value is on record as “Type one”.

For `CCc1ccc2c(c1)c1c(n2CCc2ccc(C)nc2)CCN(C)C1` [Compound 357, 8-Ethyl-2-methyl-5-[2-(6-methyl-pyridin-3-yl)-ethyl]-2,3,4,5-tetrahydro-1H-pyrido[4,3-b]indole], the “compound type” value was “Type one”.

As for `Cc1ccc2c(c1)c1c(n2CCc2ccc(C(C)C)nc2)CCN(C)C1` [Compound 360, 5-[2-(6-Isopropyl-pyridin-3-yl)-ethyl]-2,8-dimethyl-2,3,4,5-tetrahydro-1H-pyrido[4,3-b]indole], the “compound type” value was “Type one”.

Consider `CCc1ccc(CCn2c3c(c4cc(Cl)ccc42)CN(C)CC3)cn1` [Compound 371, 8-Chloro-5-[2-(6-ethyl-pyridin-3-yl)-ethyl]-2-methyl-2,3,4,5-tetrahydro-1H-pyrido[4,3-b]indole], for which the “compound type” value is listed as “Type one”.

Turning to `CC(C)c1ccc(CCn2c3c(c4cc(Cl)ccc42)CN(C)CC3)cn1` [Compound 372, 8-Chloro-5-[2-(6-isopropyl-pyridin-3-yl)-ethyl]-2-methyl-2,3,4,5-tetrahydro-1H-pyrido[4,3-b]indole], the “compound type” value is “Type one”.

As to `Cc1ccc(CCn2c3c(c4cc(Cl)c(F)cc42)CN(C)CC3)cn1` [Compound 404, 8-Chloro-7-fluoro-2-methyl-5-[2-(6-methyl-pyridin-3-yl)-ethyl]-2,3,4,5-tetrahydro-1H-pyrido[4,3-b]indole], the “compound type” value is “Type one”.

Consider `Cc1ccc2c(c1)c1c(n2CCc2cncc(Cl)c2)CCN(C)C1` [Compound 443, 5-(2-(5-chloropyridin-3-yl)ethyl)-2,3,4,5-tetrahydro-2,8-dimethyl-1H-pyrido[4,3-b]indole], for which the “compound type” value is listed as “Type one”.

In the case of `CN1CCc2c(c3cc(Cl)ccc3n2CCc2cncc(Cl)c2)C1` [Compound 444, 8-chloro-5-(2-(5-chloropyridin-3-yl)ethyl)-2,3,4,5-tetrahydro-2-methyl-1H-pyrido[4,3-b]indole], the “compound type” value was “Type one”.

For `CCCc1ccc(CCn2c3c(c4cc(C)ccc42)CN(C)CC3)cn1` [Compound 452, 2,8-Dimethyl-5-[2-(6-propyl-pyridin-3-yl)-ethyl]-2,3,4,5-tetrahydro-1H-pyrido[4,3-b]indole], the “compound type” value is recorded as “Type one”.

Take `Cc1ccc2c(c1)c1c(n2CC(C)c2ccc(F)cc2)CCN(C)C1` (centres unmarked) [Compound 456, 5-(2-(4-fluorophenyl)propyl)-2,3,4,5-tetrahydro-2,8-dimethyl-1H-pyrido[4,3-b]indole]: the “compound type” value was “Type one”.

As to `CCCc1ccc(CCn2c3c(c4cc(Cl)ccc42)CN(C)CC3)cn1` [Compound 476, 8-chloro-2,3,4,5-tetrahydro-2-methyl-5-(2-(6-propylpyridin-3-yl)ethyl)-1H-pyrido[4,3-b]indole], the “compound type” value is given as “Type one”.

The values are drawn from US9096591B2, “Tetracyclic compounds” (Medivation Technologies, Inc., priority 2007, dated 2015).
